ChEMBL document CHEMBL1201862, “PubChem BioAssay data set” (2004)
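Exposure lasted 48 hours, with cells grown in 96-well plates and compounds tested at five concentrations. GI50 is the concentration that inhibits growth by half.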 The source made the active and inactive calls. Rule as the data show it: active = GI50 up to about 1.1 µM and inactive = higher.

What was measured:
Assay in all cases: NCI tumour cell line growth inhibition, 48 h
HOP-62 = system: HOP-62
OVCAR-3 = system: OVCAR-3
TK-10 = system: TK-10
HT-29 = system: HT-29
UACC-62 = system: UACC-62
SK-OV-3 = system: SK-OV-3
SF-295 = system: SF-295
LXFL 529 = system: LXFL 529
MOLT-4 = system: MOLT-4
NCI-H460 = system: NCI-H460
NCI-H522 = system: NCI-H522
SNB-78 = system: SNB-78
HCT-15 = system: HCT-15
HCC 2998 = system: HCC 2998
RXF 393 = system: RXF 393
A549 = system: A549
OVCAR-8 = system: OVCAR-8
COLO 205 = system: COLO 205
ACHN = system: ACHN
SF-539 = system: SF-539
OVCAR-4 = system: OVCAR-4
SW-620 = system: SW-620
A498 = system: A498
Malme-3M = system: Malme-3M
SK-MEL-2 = system: SK-MEL-2
NCI-H226 = system: NCI-H226
UO-31 = system: UO-31
HOP-92 = system: HOP-92
SN12C = system: SN12C
DMS-273 = system: DMS-273
HOP-18 = system: HOP-18
M14 = system: M14
SNB-19 = system: SNB-19
DMS-114 = system: DMS-114
HCT-116 = system: HCT-116
DLD-1 = system: DLD-1
RPMI-8226 = system: RPMI-8226
SK-MEL-5 = system: SK-MEL-5
SK-MEL-28 = system: SK-MEL-28
SF-268 = system: SF-268
LOX IMVI = system: LOX IMVI
KM-20L2 = system: KM-20L2
EKVX = system: EKVX
RXF 631 = system: RXF 631
IGROV-1 = system: IGROV-1
CAKI-1 = system: CAKI-1
K562 = system: K562
HL-60 = system: HL-60
M19-MEL = system: M19-MEL
SNB-75 = system: SNB-75
U-251 = system: U-251
NCI-H23 = system: NCI-H23
KM12 = system: KM12
786-0 = system: 786-0
UACC-257 = system: UACC-257
OVCAR-5 = system: OVCAR-5
CCRF-CEM = system: CCRF-CEM

O=C(CC(=O)C1CCOC1=O)C(=O)Nc1cccc(Cl)c1 (stereo not drawn)
GI50 (HOP-62): > 100 µM (inactive)
GI50 (OVCAR-3): > 100 µM (inactive)
GI50 (TK-10): > 100 µM (inactive)
GI50 (HT-29): > 100 µM (inactive)
GI50 (UACC-62): > 100 µM (inactive)
GI50 (SK-OV-3): > 100 µM (inactive)
GI50 (SF-295): > 100 µM (inactive)
GI50 (LXFL 529): > 100 µM (inactive)
GI50 (MOLT-4): > 100 µM (inactive)
GI50 (NCI-H460): > 100 µM (inactive)
GI50 (NCI-H522): > 100 µM (inactive)
GI50 (SNB-78): > 100 µM (inactive)
GI50 (HCT-15): > 100 µM
GI50 (HCC 2998): > 100 µM (inactive)
GI50 (RXF 393): > 100 µM (inactive)
GI50 (A549): > 100 µM (inactive)
GI50 (OVCAR-8): > 100 µM (inactive)
GI50 (COLO 205): > 100 µM (inactive)
GI50 (ACHN): > 100 µM (inactive)
GI50 (SF-539): > 100 µM (inactive)
GI50 (OVCAR-4): > 100 µM (inactive)
GI50 (SW-620): > 100 µM (inactive)
GI50 (A498): > 100 µM (inactive)
GI50 (Malme-3M): > 100 µM (inactive)
GI50 (SK-MEL-2): > 100 µM (inactive)
GI50 (NCI-H226): > 100 µM (inactive)
GI50 (UO-31): > 100 µM (inactive)
GI50 (HOP-92): > 100 µM (inactive)
GI50 (SN12C): > 100 µM (inactive)
GI50 (DMS-273): > 100 µM (inactive)
GI50 (HOP-18): > 100 µM (inactive)
GI50 (M14): > 100 µM (inactive)
GI50 (SNB-19): > 100 µM (inactive)
GI50 (DMS-114): > 100 µM (inactive)
GI50 (HCT-116): > 100 µM (inactive)
GI50 (DLD-1): > 100 µM (inactive)
GI50 (RPMI-8226): > 100 µM (inactive)
GI50 (SK-MEL-5): > 100 µM (inactive)
GI50 (SK-MEL-28): > 100 µM (inactive)
GI50 (SF-268): > 100 µM (inactive)
GI50 (LOX IMVI): > 100 µM (inactive)
GI50 (KM-20L2): > 100 µM (inactive)
GI50 (EKVX): > 100 µM (inactive)
GI50 (RXF 631): > 100 µM (inactive)
GI50 (IGROV-1): > 100 µM (inactive)
GI50 (CAKI-1): > 100 µM (inactive)
GI50 (K562): > 100 µM (inactive)
GI50 (HL-60): > 100 µM (inactive)
GI50 (M19-MEL): > 100 µM (inactive)
GI50 (SNB-75): > 100 µM (inactive)
GI50 (U-251): > 100 µM (inactive)
GI50 (NCI-H23): > 100 µM (inactive)
GI50 (KM12): > 100 µM (inactive)
GI50 (786-0): > 100 µM (inactive)
GI50 (UACC-257): > 100 µM (inactive)
GI50 (OVCAR-5): > 100 µM (inactive)

O=C(CCC(=O)C1Cc2ccccc2C1=O)Nc1cccc(C(F)(F)F)c1 (stereo not drawn)
GI50 (HOP-62): > 100 µM (inactive)
GI50 (OVCAR-3): > 100 µM (inactive)
GI50 (TK-10): > 100 µM (inactive)
GI50 (HT-29): > 100 µM (inactive)
GI50 (UACC-62): > 100 µM (inactive)
GI50 (SK-OV-3): > 100 µM (inactive)
GI50 (SF-295): > 100 µM (inactive)
GI50 (LXFL 529): > 100 µM (inactive)
GI50 (MOLT-4): > 100 µM (inactive)
GI50 (NCI-H460): > 100 µM (inactive)
GI50 (SNB-78): > 100 µM (inactive)
GI50 (HCT-15): > 100 µM
GI50 (HCC 2998): > 100 µM (inactive)
GI50 (RXF 393): > 100 µM (inactive)
GI50 (A549): > 100 µM (inactive)
GI50 (OVCAR-8): > 100 µM (inactive)
GI50 (COLO 205): > 100 µM (inactive)
GI50 (ACHN): > 100 µM (inactive)
GI50 (SF-539): > 100 µM (inactive)
GI50 (OVCAR-4): > 100 µM (inactive)
GI50 (SW-620): > 100 µM (inactive)
GI50 (Malme-3M): > 100 µM (inactive)
GI50 (SK-MEL-2): > 100 µM (inactive)
GI50 (NCI-H226): > 100 µM (inactive)
GI50 (UO-31): > 100 µM (inactive)
GI50 (HOP-92): > 100 µM (inactive)
GI50 (SN12C): > 100 µM (inactive)
GI50 (DMS-273): > 100 µM (inactive)
GI50 (HOP-18): > 100 µM (inactive)
GI50 (M14): > 100 µM (inactive)
GI50 (SNB-19): > 100 µM (inactive)
GI50 (HCT-116): > 100 µM (inactive)
GI50 (DLD-1): > 100 µM (inactive)
GI50 (SK-MEL-5): > 100 µM (inactive)
GI50 (SK-MEL-28): > 10 µM (inactive)
GI50 (SF-268): > 100 µM (inactive)
GI50 (LOX IMVI): > 100 µM (inactive)
GI50 (KM-20L2): > 100 µM (inactive)
GI50 (EKVX): > 100 µM (inactive)
GI50 (RXF 631): > 100 µM (inactive)
GI50 (IGROV-1): > 100 µM (inactive)
GI50 (CAKI-1): > 100 µM (inactive)
GI50 (CCRF-CEM): > 100 µM (inactive)
GI50 (K562): > 100 µM (inactive)
GI50 (HL-60): > 100 µM (inactive)
GI50 (M19-MEL): > 100 µM (inactive)
GI50 (U-251): > 100 µM (inactive)
GI50 (NCI-H23): > 100 µM (inactive)
GI50 (KM12): > 100 µM (inactive)
GI50 (786-0): > 100 µM (inactive)
GI50 (UACC-257): > 100 µM (inactive)
GI50 (OVCAR-5): > 100 µM (inactive)
